Data taken from patent US20210112813A1, “HERBICIDAL COMPOSITION AND USE THEREOF” (NANTONG JIANGSHAN AGROCHEMICAL & CHEMICALS CO., LTD., priority 2019, published 2021).

Columns and labels:
Type in all cases: in vivo
Abutilon [1] = test: Greenhouse pot test, post-emergence stem and leaf treatment, visual control effect 30 days after treatment, Gowing method
Protocol: (§1) In the present application, indoor combined action of the compound of herbicide active component A and B on weeds was measured to determine the combined effect of the composition on weeds, wherein the structure of the active component A was as follows:
(§2) The weed cultivation method was as follows: quantitative weed seeds abutilon and bristlegrass were respectively sown in a paper cup filled with nutrient soil with a diameter of 7 cm, and then cultivated in the greenhouse after covering the soil, suppressing and watering. The post-emergence stem and leaf treatment was performed when the grass weeds grew to 5-7 leaf stage, broad-leaved weeds grew to 6-8 leaf stage; the pre-emergence soil treatment was performed the second day after sowing, and the early post-emergence treatment was performed after sowing and before emergence; the experiment was repeated 3 times. After the treatment and drug solution naturally dried, the weeds were placed in the greenhouse to be managed according to conventional methods. According to the suppression or death of the weeds, a visual control effect investigation was conducted 30 days after the treatment. The application adopted the Gowing method to evaluate the combined effect of the proposed composition.
(§3) X—Weed control effect when the amount of herbicide component A is P;
(§4) Y—Weed control effect when the amount of herbicide component B is Q;
(§5) E0—Theoretical control effect when the amount of herbicide component A is […];
(§6) E—The measured control effect after the herbicide component A and the herbicide component B are mixed according to the above ratio.
(§7) When E−E0>10%, it is synergism; when E−E0<−10%, it is antagonism; when E−E0 value is between ±10%, it is addition.

Bristlegrass [2] = test: as above
Protocol: as §1, §2, §3, §4, §5, §6, §7

Amaranthusretroflexus [3] = test: Field plot test, non-cultivated weeds, early post-emergence
Protocol: (§8) The present application also conducted a medicinal efficacy test on weeds on the formulation examples containing herbicide active component A and active component B by the field plot test method, and clarified the control effect of the composition on non-cultivated weeds.
(§9) According to the different components of different formulation examples, pre-emergence soil treatment, early post-emergence and post-emergence stem and leaf spray treatment were carried out respectively. The spraying device was Singapore Linong HD400 hand-operating knapsack sprayer (No. H17001), working pressure: […], spray rate: 640 mL/min, adjustable cone spraying nozzle (325787), spraying nozzle height: 0.5 m, spray width: 0.85 m, walking speed: about 16.7 m/min, and spray volume: […];

Abutilon [4] = test: as above
Protocol: as §8, §9

Bristlegrass [5] = test: as above
Protocol: as §8, §9

Echinochloacrusgalli [6] = test: as above
Protocol: as §8, §9

Abutilon [7] = test: Greenhouse pot test, pre-emergence soil treatment, visual control effect 30 days after treatment, Gowing method
Protocol: as §1, §2, §3, §4, §5, §6, §7

Bristlegrass [8] = test: as above
Protocol: as §1, §2, §3, §4, §5, §6, §7

Bristlegrass [9] = test: Greenhouse pot test (treatment timing not given, Tables 6 and 7), visual control effect, Gowing method
Protocol: as §1, §2, §3, §4, §5, §6, §7

Amaranthusretroflexus [10] = test: Field plot test, non-cultivated weeds, post-emergence stem and leaf spray; settings: Table 10, dose 100 ga.i./hm^2
Protocol: as §8, §9

Abutilon [11] = test: as above; settings: Table 10, dose 100 ga.i./hm^2
Protocol: as §8, §9

Bristlegrass [12] = test: as above; settings: Table 10, dose 100 ga.i./hm^2
Protocol: as §8, §9

Echinochloacrusgalli [13] = test: as above; settings: Table 10, dose 100 ga.i./hm^2
Protocol: as §8, §9

Amaranthusretroflexus [14] = test: Greenhouse pot test (treatment timing not given, Table 7), visual control effect, Gowing method

Molecule: CCc1cnc(C2=NC(C)(C(C)C)C(=O)N2)c(C(=O)O)c1 (stereo not shown) [Imazethapyr]
- Measured value E (Abutilon [1]; Table 5, dose 22.5 ga.i./hm^2): 10%
- Measured value E (Abutilon [1]; Table 5, dose 45 ga.i./hm^2): 20%
- Measured value E (Bristlegrass [2]; Table 5, dose 22.5 ga.i./hm^2): 45%
- Measured value E (Bristlegrass [2]; Table 5, dose 45 ga.i./hm^2): 50%
- Control effect, Amaranthusretroflexus (Amaranthusretroflexus [3]; Table 9, dose 100 ga.i./hm^2): 70
- Control effect, Abutilon (Abutilon [4]; Table 9, dose 100 ga.i./hm^2): 45
- Control effect, Bristlegrass (Bristlegrass [5]; Table 9, dose 100 ga.i./hm^2): 50
- Control effect, Echinochloacrusgalli (Echinochloacrusgalli [6]; Table 9, dose 100 ga.i./hm^2): 60
- Measured value E (Abutilon [7]; Table 4, dose 45 ga.i./hm^2): 5%
- Measured value E (Abutilon [7]; Table 4, dose 90 ga.i./hm^2): 25%
- Measured value E (Bristlegrass [8]; Table 4, dose 45 ga.i./hm^2): 30%
- Measured value E (Bristlegrass [8]; Table 4, dose 90 ga.i./hm^2): 45%

Molecule: CCOc1cc(Oc2ccc(C(F)(F)F)cc2Cl)ccc1[N+](=O)[O-] [Oxyfluorfen]
- Measured value E (Bristlegrass [9]; Table 7, dose 22.5 ga.i./hm^2): 15%
- Measured value E (Bristlegrass [9]; Table 7, dose 45 ga.i./hm^2): 50%
- Control effect, Amaranthusretroflexus (Amaranthusretroflexus [10]): 80
- Control effect, Abutilon (Abutilon [11]): 80
- Control effect, Bristlegrass (Bristlegrass [12]): 65
- Control effect, Echinochloacrusgalli (Echinochloacrusgalli [13]): 85
- Measured value E (Amaranthusretroflexus [14]; dose 22.5 ga.i./hm^2): 30%
- Measured value E (Amaranthusretroflexus [14]; dose 45 ga.i./hm^2): 60%

Molecule: Cn1nc(C(F)(F)F)c(CS(=O)(=O)C2=NOC(C)(C)C2)c1OC(F)F [Pyroxasulfone]
- Measured value E (Abutilon [1]; Table 5, dose 45 ga.i./hm^2): 50%
- Measured value E (Abutilon [1]; Table 5, dose 90 ga.i./hm^2): 65%
- Measured value E (Bristlegrass [2]; Table 5, dose 45 ga.i./hm^2): 70%
- Measured value E (Bristlegrass [2]; Table 5, dose 90 ga.i./hm^2): 85%
- Control effect, Amaranthusretroflexus (Amaranthusretroflexus [3]; Table 9, dose 200 ga.i./hm^2): 60
- Control effect, Abutilon (Abutilon [4]; Table 9, dose 200 ga.i./hm^2): 30
- Control effect, Bristlegrass (Bristlegrass [5]; Table 9, dose 200 ga.i./hm^2): 35
- Control effect, Echinochloacrusgalli (Echinochloacrusgalli [6]; Table 9, dose 200 ga.i./hm^2): 15
- Measured value E (Abutilon [7]; Table 4, dose 90 ga.i./hm^2): 40%
- Measured value E (Abutilon [7]; Table 4, dose 180 ga.i./hm^2): 55%
- Measured value E (Bristlegrass [8]; Table 4, dose 90 ga.i./hm^2): 60%
- Measured value E (Bristlegrass [8]; Table 4, dose 180 ga.i./hm^2): 75%

Molecule: Acetofluran
- Measured value E (Bristlegrass [9]; Table 7, dose 60 ga.i./hm^2): 5%
- Measured value E (Bristlegrass [9]; Table 7, dose 90 ga.i./hm^2): 30%
- Control effect, Amaranthusretroflexus (Amaranthusretroflexus [10]): 75
- Control effect, Abutilon (Abutilon [11]): 75
- Control effect, Bristlegrass (Bristlegrass [12]): 55
- Control effect, Echinochloacrusgalli (Echinochloacrusgalli [13]): 70
- Measured value E (Amaranthusretroflexus [14]; dose 60 ga.i./hm^2): 35%
- Measured value E (Amaranthusretroflexus [14]; dose 90 ga.i./hm^2): 55%
